Patent US11446398B2, “Regulated biocircuit systems” (Obsidian Therapeutics, Inc., priority 2016, dated 2022)

B1: OT-RLuc-006: Renilla Luc; linker (SG); ecDHFR (R12Y, Y100I); SEQ ID NO 213377 (protein)
chain: MTSKVYDPEQRKRMITGPQWWARCKQMNVLDSFINYYDSEKHAENAVIFLHGNAASSYLWRHVVPHIEPVARCIIPDLIGMGKSGKSGNGSYRLLDHYKYLTAWFELLNLPKKIIFVGHDWGACLAFHYSYEHQDKIKAIVHAESVVDVIESWDEWPDIEEDIALIKSEEGEKMVLENNFFVETMLPSKIMRKLEPEEFAAYLEPFKEKGEVRRPTLSWPREIPLVKGGKPDVVQIVRNYNAYLRASDDLPKMFIESDPGFFSNAIVEGAKKFPNTEFVKVKGLHFSQEDAPDEMGKYIKSFVERVLKNEQSGISLIAALAVDYVIGMENAMPWNLPADLAWFKRNTLNKPVIMGRHTWESIGRPLPGRKNIILSSQPGTDDRVTWVKSVDEAIAACGDVPEIMVIGGGRVIEQFLPKAQKLYLTHIDAEVEGDTHFPDYEPDDWESVFSEFHDADAQNSHSYCFEILERR
B2: OT-RLuc-005: Renilla Luc; linker (SG); FKBP (E31G, F36V, R71G, K105E); SEQ ID NO 213376 (protein)
chain: MTSKVYDPEQRKRMITGPQWWARCKQMNVLDSFINYYDSEKHAENAVIFLHGNAASSYLWRHVVPHIEPVARCIIPDLIGMGKSGKSGNGSYRLLDHYKYLTAWFELLNLPKKIIFVGHDWGACLAFHYSYEHQDKIKAIVHAESVVDVIESWDEWPDIEEDIALIKSEEGEKMVLENNFFVETMLPSKIMRKLEPEEFAAYLEPFKEKGEVRRPTLSWPREIPLVKGGKPDVVQIVRNYNAYLRASDDLPKMFIESDPGFFSNAIVEGAKKFPNTEFVKVKGLHFSQEDAPDEMGKYIKSFVERVLKNEQSGGVQVETISPGDGRTFPKRGQTCVVHYTGMLGDGKKVDSSRDRNKPFKFMLGKQEVIRGWEEGVAQMSVGQGAKLTISPDYAYGATGHPGIIPPHATLVFDVELLELE
B3: OT-RLuc-001: Renilla Luc (constitutive); SEQ ID NO 213372 (protein)
chain: MTSKVYDPEQRKRMITGPQWWARCKQMNVLDSFINYYDSEKHAENAVIFLHGNAASSYLWRHVVPHIEPVARCIIPDLIGMGKSGKSGNGSYRLLDHYKYLTAWFELLNLPKKIIFVGHDWGACLAFHYSYEHQDKIKAIVHAESVVDVIESWDEWPDIEEDIALIKSEEGEKMVLENNFFVETMLPSKIMRKLEPEEFAAYLEPFKEKGEVRRPTLSWPREIPLVKGGKPDVVQIVRNYNAYLRASDDLPKMFIESDPGFFSNAIVEGAKKFPNTEFVKVKGLHFSQEDAPDEMGKYIKSFVERVLKNEQ
B4: OT-RLuc-004: ecDHFR (R12Y, Y100I); linker (SG); Renilla Luc; SEQ ID NO 213375 (protein)
chain: MISLIAALAVDYVIGMENAMPWNLPADLAWFKRNTLNKPVIMGRHTWESIGRPLPGRKNIILSSQPGTDDRVTWVKSVDEAIAACGDVPEIMVIGGGRVIEQFLPKAQKLYLTHIDAEVEGDTHFPDYEPDDWESVFSEFHDADAQNSHSYCFEILERRSGTSKVYDPEQRKRMITGPQWWARCKQMNVLDSFINYYDSEKHAENAVIFLHGNAASSYLWRHVVPHIEPVARCIIPDLIGMGKSGKSGNGSYRLLDHYKYLTAWFELLNLPKKIIFVGHDWGACLAFHYSYEHQDKIKAIVHAESVVDVIESWDEWPDIEEDIALIKSEEGEKMVLENNFFVETMLPSKIMRKLEPEEFAAYLEPFKEKGEVRRPTLSWPREIPLVKGGKPDVVQIVRNYNAYLRASDDLPKMFIESDPGFFSNAIVEGAKKFPNTEFVKVKGLHFSQEDAPDEMGKYIKSFVERVLKNEQ

Assays:
[1] = tested on: HCT-116 cells; experiment: Luciferase expression by western blotting; type: cell-based; conditions: HCT-116 stably transduced; 1 μM Shield-1 or 10 μM Trimethoprim or vehicle, 24 hours; FIG. 22A
Description: DD regulated luciferase can be used to track cells in vivo e.g. T cells. Firefly luciferase or Renilla luciferase may be utilized as the payload. HCT-116 cells were stably transduced with the constitutive (OT-RLuc-001) or DD regulated constructs (OT-RLuc-002, OT-RLuc-003, OT-RLuc-004, OT-RLuc-005 and OT-RLuc-006). Cells were treated with 1 μM Shield-1, or 10 μM Trimethoprim or vehicle control for 24 hours and luciferase expression and activity was measured. Luciferase expression was measured via western blotting using Anti-Renilla luciferase and anti-Firefly luciferase antibodies (Abcam, Cambridge, UK). Blots were also probed with anti-GAPDH antibody to ensure even protein loading in all samples.

[2] = tested on: HEK-Blue sensor cells; experiment: HEK-Blue sensor cell assay for functional IL12 (Quanti-Blue); type: cell-based; conditions: HEK 293T transfected with 200 ng plasmid, 10 μM Shield-1 24 hours; media on HEK Blue sensor cells; FIG. 21A
Description: HEK-Blue sensor cells (InvivoGen, San Diego, Calif.) were utilized to evaluate whether DD regulated IL12 is capable of regulating signaling downstream of IL12. In these cells, the IL12 receptor, STAT4 and downstream transcriptional elements are tied to a reporter gene such that IL12 signaling can be monitored. To evaluate production of functional IL12, one million HEK 293T were transfected with 200 ng of OT-IL-12-003 plasmid using Lipofectamine 2000 (Thermo Fisher Scientific, Waltham, Mass.). 48 hours after transfection, cells were treated with growth media containing 10 μM Shield-1, incubated for another 24 hours, following which, media was collected. […] After overnight incubation, 20 μl media was removed from each well and incubated with 180 μl Quanti-Blue reagent (InvivoGen, San Diego, Calif.) for 30 minutes at 37° C. Absorption was measured at 620 nm using a spectrophotometer. […] Functional IL12 concentrations were determined by comparing the optical density of each sample with IL12 standard curve.
The dependence of functional IL12 production on the dose of Shield-1 used was also evaluated. […] Absorption was measured at 620 nm using a spectrophotometer. […] Functional IL12 concentrations were determined by comparing the optical density of each sample with IL12 standard curve.

[3] = tested on: HEK293T cells; experiment: IL12-p40 ELISA, Shield-1 dose and cell number dependent IL12 induction; type: cell-based, human; conditions: OT-IL12-004 transduced HEK293T cells, 24 hours
Description: Following overnight incubation, cells were treated with growth medium containing 0 to 10 μM Shield-1 for 24 hours. Media was then collected, diluted 400 fold and FKBP-IL12 levels were measured using IL12-p40 ELISA.

[4] = tested on: HCT116 cells; experiment: IL2 ELISA, dependence of DD-IL2 levels on Shield-1 dose; type: cell-based; conditions: 96-well plate, varying concentrations of Shield-1, DD-IL2 construct, read-out: ECK of Shield-1 (IL2 levels by IL2 ELISA)
Description: FKBP (L106P) and ecDHFR (R12Y, Y100I) are well-characterized destabilizing domains which can confer instability to fusion partners (e.g., a POI). The instability is reversed by a synthetic ligand named Shield-1 that binds to FKBP; TMP that binds to DHFR. An IL2 polypeptide was linked to either FKBP (L106P) or ecDHFR (R12Y, Y100I). IL2 constructs were cloned into pLVX-IRES-Puro lentiviral vectors. An IL2 signal sequence was inserted at the N terminus of the construct.
To evaluate dependence of IL2 levels on Shield-1 dose, HCT116 cells were plated onto a 96-well plate and treated with varying concentrations of Shield-1. Media was then collected from cells and IL2 levels were quantified using IL2 ELISA (FIG. 20). IL2 increased with increase in Shield-1 concentration and plateaued at higher Shield-1 dose levels. The ECK of Shield-1 was determined to be 50 nM

[5] = tested on: HCT-116 cells; experiment: Luciferase activity, luminescence reading; type: cell-based; conditions: 1 μM Shield-1 or 10 μM Trimethoprim or vehicle, 24 hours; coelentrazine or luciferin substrate; FIG. 22B
Description: Ligand dependent activity of Renilla and firefly luciferase constructs was also measured in using coelentrazine and luciferin substrates respectively. Cells were treated with 1 μM Shield-1, or 10 μM Trimethoprim or vehicle control for 24 hours, lysed with assay lysis buffer and incubated with the luciferase substrate. Luciferase activity was measured as luminescence reading using a luminometer and the values were compared to control comprising of lysis buffer and substrate.

Molecule	Luciferase expression, ligand dependent stabilization (western blotting) [1]	also measured
OT-RLuc-003: FKBP (F36V, 106P); linker (SG); Renilla Luc; SEQ ID NO 213374	strong Shield-1 dependent stabilization	
OT-FLuc-002: FKBP (F36V, 106P); linker (EF); Fluc; SEQ ID NO 213373	modest stabilization	
OT-IL12-003: p40 signal sequence; FKBP (F36V, L106P); furin (SARNRQKRS); p40; linker ((G4S)3); p35; SEQ ID NO 213301		Media dilution at which measurable levels of functional IL12 were reached [2]: 640 fold
CC[C@H](C(=O)N1CCCC[C@H]1C(=O)O[C@H](CCc1ccc(OC)c(OC)c1)c1cccc(OCCN2CCOCC2)c1)c1cc(OC)c(OC)c(OC)c1 [Shield-1]		Shield-1 dose up to which IL12 induction increased, then plateaued [3]: 1 µM; EC50 [4]: 50 nM
B1	modest stabilization	
B2	modest stabilization	
B3	expression of Renilla luciferase both in the presence and absence of ligand	Luciferase activity (luminescence reading) [5]: high luciferase activity both in the presence and absence of ligand
B4	modest stabilization	
